Values quoted from earlier work, collected in patent US20240252447A1 (Ovid Therapeutics Inc., priority 2019, published 2024).

Assays:
[1] = system: sleep onset and sleep maintenance; settings: three-month efficacy study, insomnia
[2] = patients with a history of drug abuse

Oc1noc2c1CCNC2 [Gaboxadol, 4,5,6,7-tetrahydroisoxazolo [5,4-c]pyridine-3-ol]
effects in sleep onset and sleep maintenance [1]: failed to show significant effects in sleep onset and sleep maintenance | psychiatric adverse events [2]: steep increase in psychiatric adverse events | time to peak concentration (conventional pharmaceutical formulations such as tablets and capsules): ≤ 30 min | half-life (t1/2) (plasma half-life): 1.5 to 2 h
